Calls of active or inactive are those of the source.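 The calls were made as follows: active = fitted curve drops below -35% activity at a concentration within twice the top valid tested dose; inconclusive = no clear call, values can overlap the other calls; inactive = signal rising instead of falling, among other cases.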

The first test can be described thus: ATP-based viability loss in HepG2 cells – cell-based, CellTiter-Glo luminescence, cherry-pick, set 3, cytotoxicity control, dose response (AID 720589). Particulars: HepG2 viability, ATP luminescence (CellTiter-Glo), 72 h; at 0.011 µM; active compounds read low; 0% = untreated, negative = ATP loss. Background: Cellular ATP, detected with luciferase, serves as a proxy for viable cell number.
`COc1ccccc1/C=C1\SC(=S)N(CCC(=O)Nc2cc(C)on2)C1=O`: the max activity is -26.3% (inactive). For `Cc1cccc(N2CCN(C3C(=O)Nc4ccccc4-n4nnnc43)CC2)c1C` (stereo unspecified), the max activity was 12.3% (inactive). The same measure, in the same setting: in the case of `N#C[C@@H]1[C@H](c2ccc(C#Cc3ccc(F)cc3)cc2)[C@@H](CO)N1C(=O)Nc1ccc(F)cc1` it was -24.6% (inactive); in that of `Cc1csc(NC(=O)CCc2c(C)nc3cc(-c4ccc(Cl)cc4)nn3c2C)n1`, 11.5% (inactive). On the same count and under the same terms, in the case of `O=C(CCCCl)Nc1nc(-c2ccc3c(c2)OCCO3)cs1` it was -25% (inactive). Still for that read-out and setting: the same measure for `COc1ccc(/C=C2/NC(=O)N(CC(=O)Nc3cccc(C)c3)C2=O)cc1O`: 18.1% (inactive); for `COc1ccccc1N(/N=C1\Sc2ccccc2C1=O)C(C)=O`: -37.6% (inactive). In the case of `CC(C)(C)c1ccc(/C=N/Nc2ccc(C(=O)O)cc2)cc1`, the max activity is 17.4% (inactive). Turning to `CCOC(=O)c1c(-c2ccc(C)cc2)csc1NC(=O)CCN1CCOCC1`, the max activity is 41.8% (inactive).

With `COc1ccc2oc(C(=O)NCCc3ccccc3)c(C)c2c1`, the max activity was -16.8% (inactive). Turning to `COc1ccc(C(=O)Nc2cccc(C(=O)N/N=C/c3ccc(OC)cc3OC)c2)cc1`, the max activity was 23.8% (inactive).

Still in this test, the particulars now being: HepG2 viability, ATP luminescence (CellTiter-Glo), 72 h; at 0.035 µM; active compounds read low; 0% = untreated, negative = ATP loss.
Turning to `Cc1c(Cl)cnc(NC(=O)COC(=O)c2ccc3ncsc3c2)c1Cl`, the max activity is -18.7% (inactive). The same measure, in the same setting: in the case of `COCCCNc1ccn2nc(-c3ccccc3)cc2n1` it was -48% (inactive).

The test is the same for the next values; noted with them: HepG2 viability, ATP luminescence (CellTiter-Glo), 72 h; at 0.1 µM; active compounds read low; 0% = untreated, negative = ATP loss.
As to `Cc1ccsc1C(=O)OCC(=O)c1cc(C)n(C)c1C`, the max activity was 9.16% (inactive). Consider `COC(=O)C[C@@H]1CC[C@@H]2[C@@H](COc3ccc(NC(=O)Nc4cccc(C#N)c4)cc3C(=O)N2C)O1`, for which the max activity was -8.7% (inactive). `CCCNC(=O)[C@@H]1[C@@H](CO)[C@@H]2Cn3c(ccc(-c4ccccc4)c3=O)[C@H]1N2C(=O)CC`: the max activity is -16.5% (inactive). The same measure, in the same setting: the same measure for `CCCCN=C(NNc1ccc(Br)cc1)C(=O)OCC`: -31% (inactive); for `COCCOC(=O)N1C(=O)[C@@]2(c3cc(C#CCC(C(=O)OC)C(=O)OC)ccc31)[C@H](c1ccccc1OCCO)N1[C@H](c3ccccc3)[C@H](c3ccccc3)OC(=O)[C@H]1[C@@H]2C(=O)N1CCN(c2ncccn2)CC1`: -30.6% (inactive).

The test is the same for the next values; noted with them: HepG2 viability, ATP luminescence (CellTiter-Glo), 72 h; at 0.3 µM; active compounds read low.
Take `O=C1NC(=O)N(CCc2ccc(F)cc2)C(=O)/C1=C/C=C/c1ccccc1`: the max activity is -15.6% (inactive).

The test is the same for the next values; noted with them: HepG2 viability, ATP luminescence (CellTiter-Glo), 72 h; at 0.3 µM; active compounds read low; 0% = untreated, negative = ATP loss.
For the molecule `CCCc1cc(=O)oc2c3c(c4c(c12)OC(C)(C)C=C4)OC(C)C(C)C3O` (stereo unspecified), the max activity was -25.9% (inactive).

The test is the same for the next values; noted with them: HepG2 viability, ATP luminescence (CellTiter-Glo), 72 h; at 0.9 µM; active compounds read low; 0% = untreated, negative = ATP loss.
On to `Cc1ccc(NC(=O)COC(=O)c2ccc3c(c2)OCO3)cc1S(=O)(=O)N1CCCCC1`, for which the max activity was -30.2% (inactive). Same read-out and setting: the same measure for `CCc1ccc(/C=C2\SC(=S)N(CCCC(=O)Nc3cc(C)on3)C2=O)cc1`: -32.1% (inactive); for `COc1ccc(OC)c(-c2nnc3n2N=C(c2ccc(OC)c(OC4CCCC4)c2)CS3)c1`: -30% (inactive); for `O=c1oc2cc(O)ccc2s1`: -35.6% (inactive).

Still in this test, the particulars now being: HepG2 viability, ATP luminescence (CellTiter-Glo), 72 h; at 2.85 µM; active compounds read low; 0% = untreated, negative = ATP loss.
Consider `CC(C)NC(=O)N(C)C[C@@H]1Oc2cc(C#Cc3ccc(F)cc3)ccc2S(=O)(=O)N([C@H](C)CO)C[C@H]1C`, for which the max activity is -21.1% (inactive). On the same count and under the same terms, the same measure for `O=C(CN1C(=O)C(=O)c2ccccc21)c1ccc(Cl)cc1`: -20.2% (inactive). On the same count and under the same terms, in the case of `CN=c1scc(-c2ccccc2F)n1/N=C/c1ccc(O)c(O)c1O` it was -42.6% (inactive); in that of `CCCCCCCCCCCCCCCCCCNc1ccn(C2OC(COP(=O)(O)OCC3OC(n4cc(F)c(=O)[nH]c4=O)CC3O)C(O)C2O)c(=O)n1` (stereo unspecified), -36% (inactive). On the same count and under the same terms, in the case of `C/C=C/c1ccc(C2[C@@H]3CN(C(=O)Cc4ccccc4)C[C@H]2N3)cc1` (stereo partly specified) it was -29.1% (inactive); in that of `Cc1cc(C(=O)Nc2ccc3c(c2)C(=O)N(C)[C@@H]2CC[C@H](CC(=O)N[C@H](C)c4ccccc4)O[C@H]2CO3)no1`, -28.2% (inactive). In the case of `COc1ccc(C(=O)NCCNc2nc3cc(C)cc(C)c3cc2C#N)c(OC)c1`, the max activity is -25.6% (inactive).

On to `CN(C)c1ccc(N=Nc2ccccc2Br)cc1`, for which the max activity was -41.2% (inactive).

The same test, now with this note: HepG2 viability, ATP luminescence (CellTiter-Glo), 72 h; at 8 µM; active compounds read low; 0% = untreated, negative = ATP loss.
Take `COC(=O)C[C@H]1CC[C@@H](NC(=O)Nc2ccc(C(F)(F)F)cc2)[C@H](CO)O1`: the max activity was -14.3% (inactive).

In the case of `COc1ccc(OC)c(/C=C/c2ccnc3ccccc23)c1`, the max activity is -41.5% (inactive).

For the molecule `CCOc1cc2[nH]c(=S)n(Cc3ccc(C(=O)N4CCN(C)CC4)cc3)c(=O)c2cc1OCC`, the max activity is -29.8% (inactive).

The same test, now with this note: HepG2 viability, ATP luminescence (CellTiter-Glo), 72 h; at 21 µM; active compounds read low; 0% = untreated, negative = ATP loss.
For the molecule `COc1ccc(CN(C)C[C@H]2Oc3ccc(NC(=O)CCCCCC(=O)Nc4ccccc4N)cc3CC(=O)N([C@H](C)CO)C[C@H]2C)cc1`, the max activity was -31.8% (inactive).

Staying with this test, now noted: HepG2 viability, ATP luminescence (CellTiter-Glo), 72 h; at 26 µM; active compounds read low; 0% = untreated, negative = ATP loss.
For the molecule `N#C[C@H]1N[C@H](CO)[C@H]1c1ccc(C#Cc2ccc(F)cc2)cc1`, the max activity was -31.2% (inactive). Still for that read-out and setting: the same measure for `Oc1c(Cl)cc(Cl)c2cccnc12`: -31.8% (inactive).

`C(=N\Nc1ccc2ccccc2n1)/c1ccc2c(c1)OCCO2`: the max activity is -26.2% (inactive). In the case of `Cc1ccc(C(CC(=O)O)Nc2nc(N3CCOCC3)nc(N3CCOCC3)n2)cc1` (stereo unspecified), the max activity was 36.9% (inactive). The same measure, in the same setting: in the case of `O=C(CN1C(=O)c2ccccc2S1(=O)=O)c1ccc(F)cc1` it was 20.9% (inactive); in that of `CC1=NC(=O)C(N=Nc2cccc(C(=O)O)c2)N1c1ccccc1` (stereo unspecified), -23.4% (inactive); in that of `O=C(O)c1cccc(N/N=C/c2cccs2)c1`, -13.2% (inactive). Still for that read-out and setting: the same measure for `Cc1ccc(NC(=O)CCN2CCCCC2)cc1`: 20.8% (inactive); for `Cc1ccccc1S(=O)(=O)N1CC[C@@H]2[C@@H](CO)Nc3ccc(-c4ccc(C#N)cc4)cc3[C@@H]21`: -21.8% (inactive).

For the molecule `CN1c2ccc(-c3ccc(C#N)cc3)cc2[C@H]2[C@H](CCN2S(=O)(=O)c2cccc(F)c2)[C@@H]1CO`, the max activity is 33.3% (inactive). Same read-out and setting: in the case of `CCOc1ccc(C(c2c(NC(=O)c3ccccc3)sc(C)c2C)N2CCN(CCO)CC2)cc1` (stereo unspecified) it was -11.9% (inactive); in that of `CC(C)N1C/C(=C/c2cccnc2)C(=O)/C(=C/c2cccnc2)C1`, -29.5% (inactive); in that of `O=C(N/N=C/c1ccc[nH]1)c1cc(-c2ccc(Cl)cc2)nc2ccccc12`, -21.3% (inactive). For the molecule `CCCCCCCCn1c2c(c(=N)c3c1CCC3)CCCC2`, the max activity was -46.7% (inactive). On to `CC1(CCc2ccccc2)NC(=O)N(CC(=O)N2CC(=O)Nc3ccccc32)C1=O` (stereo unspecified), for which the max activity is -19.7% (inactive). Still for that read-out and setting: the same measure for `CC1=NN(c2ccccc2)C(=O)/C1=C\C=C\c1ccccc1`: -54.8% (inactive); for `N#CC1=C(N)Oc2cc(N)ccc2C1c1cccc(Br)c1` (stereo unspecified): -27% (inactive). On the same count and under the same terms, the same measure for `Cc1cc(C(=O)CN2C(=O)c3ccccc3S2(=O)=O)c(C)n1C(C)C`: 17.7% (inactive); for `C[C@@H]1CN([C@@H](C)CO)C(=O)Cc2cc(NC(=O)Cn3cnnn3)ccc2O[C@@H]1CN(C)Cc1ccc(Oc2ccccc2)cc1`: 25% (inactive). On the same count and under the same terms, the same measure for `C[C@@H]1CN([C@@H](C)CO)C(=O)Cc2cc(N(C)C)ccc2O[C@@H]1CN(C)Cc1ccccc1`: -20.7% (inactive).
